{
  "source": "patent US8580776B2",
  "about": "“Compositions and methods for treating neurodegenerating diseases” (The Board of Trustees of the University of Illinois, priority 2007, dated 2013)",
  "key": {"[1]": {"tested_on": "EAE mice", "experiment": "L-DOPS, Atomoxetine and combination in EAE mice (Example 13)", "assay_type": "in vivo", "details": "from day 17 after booster MOG, tri-weekly, L-DOPS 400 mg/kg s.c. plus 125 mg/kg bensazeride i.p., Atomoxetine 20 mg/kg", "from_the_text": "(§1) To assess disease severity, clinical signs were scored as follows: 0 indicated no clinical signs, 1 indicated a limp tail, 2 indicated an impaired righting of the animal, 3 indicated paresis of one hind limb, 4 indicated paresis of two hind limbs, and 5 indicated the death of the animal.\nTo test whether increasing NA derived from the NA precursor L-DOPS in combination with a NA reuptake inhibitor could provide benefit in EAE, C57B16 mice were immunized with MOG35-55 peptide using standard procedures as described in Example 9."}, "[2]": {"tested_on": "EAE mice", "experiment": "L-DOPS treatment of EAE mice (Example 10)", "assay_type": "in vivo", "procedure": "To test whether increased NA derived from the NA precursor L-DOPS could provide benefits in EAE, C57B16 mice were immunized with MOG35-55 peptide using standard procedures. At day 29 (FIG. 11A, arrow) after the booster MOG, 6 mice received daily injections of L-DOPS (using an intermediate dose of 200 mg/kg s.c.; plus 125 mg/kg bensazeride i.p. to block peripheral conversion to NA); control mice received saline. In the saline group, 4/6 mice were ill on day 29, and by day 36 all 6 were ill (FIG. 11A); the average clinical score increased from 1.3±0.4 (mean±se) on day 29 to 2.3±0.2 on day 37 (FIG. 11B). […] During treatment, scores of 2 of the 4 mice improved, and the average score decreased from 1.5±0.5 on day 29 to 1.2±0.4 on day 38.\nas §1"}, "[3]": {"tested_on": "primary neurons", "experiment": "Aβ-induced neuronal damage in primary neurons (LDH release, FJ staining)", "assay_type": "cell-based", "details": "LDH release and FJ staining", "procedure": "The levels of neuronal damage, using LDH release as a neuronal damage marker, were measured as a percentage of control. C: control; Aβ: primary neurons treated with Aβ; Aβ+NA: primary neurons treated Aβ and NA; and Aβ+dbcAMP: primary neurons treated with Aβ and dbcAMP. […] The staining intensity was quantified as a percentage of control as illustrated in the graph in FIG. 9B."}, "[4]": {"tested_on": "primary microglia", "experiment": "Microglial phagocytosis of FITC-labeled Aβ1-42 (FACS)", "assay_type": "cell-based, mouse", "details": "10 nM to 10 μM, 4 hr, FITC-Aβ1-42 150 μM", "procedure": "The ability of NA to modulate Aβ phagocytosis, another means by which amyloid plaque burden is regulated, was tested. Primary microglia were incubated with indicated concentrations of NA (FIG. 5A) or the β-AR agonist isoproterenol (FIG. 5B), in the presence of FITC-labeled Aβ1-42 (150 μM). After 4 hr, intracellular levels of Aβ were determined as described below.\nPrimary murine microglial cells were generated at P1 according to standard protocols. Briefly, frontal cortices of one day old C57BL6 mice were used to prepare mixed glial cultures in T75 cm^2 flasks in DMEM containing 10% FCS and antibiotics (100 IU/mL of penicillin and 100 ug/mL of streptomycin; Sigma), and incubated at 37° C. in a humidified atmosphere containing 5% CO2. Microglia were detached from the astrocyte monolayer by gentle shaking 11-13 days after the dissection, and cultures were 95-98% Mac1 positive.\nFACS analysis was used to quantify microglial phagocytosis of Aβ1-42. […] Fluorescent signals due to cell adherent Aβ were eliminated by resuspending an aliquot of cells in an equal volume of 1 mg trypan blue/mL (Merck, Darmstadt, Germany) acetate buffer to quench extracellular fluorescence. The mean fluorescence intensity (MFI) was measured on a FACScan (Becton Dickinson, Mountain View, Calif.) equipped with an argon-ion laser (excitation wavelength at 488 nm, laser power 300 mW) and a band pass filter of 530 nm. […]"}, "[5]": {"tested_on": "mouse neuronal N2A cells", "experiment": "NEP activity in N2A cells incubated with NA", "assay_type": "cell-based", "details": "N2A cells incubated with NA for 24 hr", "procedure": "Comparative real time RT-PCR (or quantitative PCR, QPCR) was used to measure mRNA levels of the Aβ degrading enzymes neprilysin (Nep) and insulin degrading enzyme (IDE) in brain samples from vehicle and DSP4 treated mice (FIG. 4A). Neprilysin activity in brain extracts was assayed by monitoring proteolysis of a fluorescent substrate (FIG. 4B). To assess the effects of dose, mouse neuronal N2A cells were incubated with increasing does of NA for 24 hr after which NEP activity was measured (FIG. 4D, data is mean±sd and is from n=3 samples).\nIn the results shown in FIG. 4D, mouse neuronal N2A cells were incubated with NA for 24 hr after which NEP activity was measured. Data is mean±sd and is from n=3 samples."}, "[6]": {"tested_on": "P1 OPCs", "experiment": "QPCR of myelin genes in P1 OPCs treated with NA", "assay_type": "cell-based", "details": "NA versus saline", "procedure": "Additional studies were carried out in which QPCR analysis was performed for BMPs, BMP antagonists and myelin genes on P1 OPCs treated with saline or NA. The QPCR condition and primers are as described in Example 3. For QPCR experiments, RNA levels were calculated from QPCR take-off points, normalized for RNA values obtained for GDH; the average value for the vehicle treated RNA levels was set to 1.0. Comparisons were made using unpaired T-test, and P values <0.05 were considered to be significant. (FIGS. 15A and 15B)."}, "[7]": {"tested_on": "BMP2", "experiment": "QPCR of BMP2 mRNA in primary astrocytes", "assay_type": "cell-based", "details": "100 μM NA, 24 hr", "from_the_text": "(§2) As shown in FIGS. 12C and 12D, BMP2 and BMP4 mRNA levels were decreased in astrocytes treated with NA. Data is mean±sd of n=2-3 experiments, and normalized to values for β-tubulin measured in the same samples."}, "[8]": {"tested_on": "BMP4", "experiment": "QPCR of BMP4 mRNA in primary astrocytes", "assay_type": "cell-based", "procedure": "as §2\n(§3) Further studies were carried out in which primary astrocytes were treated with 30 μM NA for 24 hours then mRNA levels of bone morphogenic proteins BMP2 and BMP4, Noggin, Gremlin, Follistatin and BAMBI were measured by QPCR (FIG. 16A). The results confirmed that BMP4 mRNA levels were decreased, whereas the Noggin mRNA levels were increased, in NA treated primary astrocytes (FIG. 16A)."}, "[9]": {"tested_on": "oligodendrocyte progenitor cells (OPCs)", "experiment": "Oligosphere / OPC maturation by immunostaining", "assay_type": "cell-based, mouse", "procedure": "Initial studies were carried out to identify treatments that influence OLG maturation using primary oligodendrocyte progenitor cells (OPCs) from E13 mouse pups. The cells were isolated as E13 neurospheres, and were shifted to OLG commitment (Oligospheres) by culture in PDGFα and bFGF. E13 Oligospheres were cultured on polylysine coated slides in media (containing bFGF and PDGFα) in the presence or absence of 25 μM NA. After 2 days the cells were fixed and stained with antibody to MBP (FIGS. 12A and 12B).\nFurther studies were carried out in which the oligospheres were cultured on polylysine coated slides in media (containing bFGF and PDGFα) in the presence or absence of 20 μM NA. After 24 hours the cells were fixed and stained with antibodies for PDGFRa, Oligodendrocyte Marker O4 and PLP (FIGS. 13 and 14)."}, "[10]": {"tested_on": "Noggin", "experiment": "Noggin mRNA (QPCR) and protein staining in primary astrocytes", "assay_type": "cell-based", "procedure": "as §3"}},
  "note": "Entries after “also recorded” stand apart in the source; their conditions may differ.",
  "data": [
    {"compound": "CNCC[C@@H](Oc1ccccc1C)c1ccccc1", "note": "[Atomoxetine]", "values": [
      {"measurement": "clinical scores / EAE symptoms", "setting": "[1]", "value": "no effect on clinical scores"},
      {"measurement": "clinical scores / EAE symptoms", "setting": "[1]; listed as Axtomoxtine", "value": "limited benefit"}
    ]},
    {"compound": "N[C@H](C(=O)O)[C@H](O)c1ccc(O)c(O)c1", "note": "[L-DOPS, (−)-threo-3-(3,4-dihydroxyphenyl)-L-serine]", "values": [
      {"measurement": "clinical scores in EAE mice", "setting": "[2]; FIGS. 11A-11C", "value": "prevents the worsening of clinical scores"},
      {"measurement": "ill mice whose scores improved during treatment", "setting": "[2]; L-DOPS group", "value": "2 of the 4"},
      {"measurement": "incidence of disease during treatment", "setting": "[2]; L-DOPS group after day 29, saline all 6 ill by day 36", "value": "did not further increase"},
      {"measurement": "mice ill on day 29", "setting": "[2]; L-DOPS group, first day of treatment", "value": "4/6"},
      {"measurement": "average clinical score, day 38", "setting": "[2]; daily L-DOPS 200 mg/kg s.c. plus 125 mg/kg bensazeride i.p. from day 29, saline 2.3±0.2 on day 37", "value": "1.2±0.4"},
      {"measurement": "average clinical score, day 29", "setting": "[2]; first day of L-DOPS 200 mg/kg s.c. plus 125 mg/kg bensazeride i.p., mean±se", "value": "1.5±0.5"},
      {"measurement": "clinical scores / EAE symptoms", "setting": "[1]", "value": "Benefits to EAE were seen; also recorded: stabilized scores"}
    ]},
    {"compound": "NC[C@H](O)c1ccc(O)c(O)c1", "note": "[NA, noradrenaline]", "values": [
      {"measurement": "Aβ induced damage in primary neurons", "setting": "[3]", "value": "reduces Aβ induced damage"},
      {"measurement": "accumulation of fluorescently tagged Aβ1-42 (intracellular Aβ uptake)", "setting": "[4]", "value": "dose dependently increased"},
      {"measurement": "NEP activity in cell culture", "setting": "[5]", "value": "increases NEP activity"},
      {"measurement": "OPC maturation by Olig1, Olig2, GALc and CGT mRNA levels", "setting": "[6]", "value": "increases OPC maturation"},
      {"measurement": "BMP2 mRNA levels", "setting": "[7]", "value": "decreased"},
      {"measurement": "BMP4 mRNA levels", "setting": "[8]; 30 μM NA, 24 hours", "value": "decreased"},
      {"measurement": "BMP4 mRNA levels", "setting": "[8]; 100 μM NA, 24 hr", "value": "decreased"},
      {"measurement": "OPC maturation, PDGFRa, O4 and PLP staining", "setting": "[9]; 20 μM NA, 24 hours", "value": "accelerated OPC maturation"},
      {"measurement": "OPC maturation, PDGFa, O4 and PLP staining (figure legends)", "setting": "[9]; 30 μM NA, 24 hours", "value": "induces more processes and greater a number of cells; also recorded: increased OPC maturation"},
      {"measurement": "OPC maturation, MBP staining", "setting": "[9]; E13 oligospheres, 25 μM NA, 2 days", "value": "accelerated OPC maturation"},
      {"measurement": "Noggin protein expression (antibody staining)", "setting": "[10]; NA-treated primary astrocytes", "value": "increased Noggin expression"},
      {"measurement": "Noggin mRNA levels", "setting": "[10]; primary astrocytes, 30 μM NA, 24 hours", "value": "increased"}
    ]},
    {"compound": "CC(C)NCC(O)c1ccc(O)c(O)c1", "note": "(stereo not shown) [isoproterenol]", "values": [
      {"measurement": "accumulation of fluorescently tagged Aβ1-42 (intracellular Aβ uptake)", "setting": "[4]", "value": "dose dependently increased"}
    ]}
  ]
}
